# Measured values published in article PMC7011920, “Synthesis and biological evaluation of stilbene derivatives coupled to NO donors as potential antidiabetic agents” (Journal of Enzyme Inhibition and Medicinal Chemistry, 2018).
# Legend:
# [1] = tested on: STZ-induced diabetic mice; assay: Acute hypoglycaemic assay in STZ-diabetic mice; assay type: in vivo; conditions: for Blood glucose concentration: mean ± SEM, six mice
# Procedure: The antidiabetic activity was determined by using a standard method. […] Especially, compound 7c caused significant decreases in blood glucose levels when compared with vehicle-treated groups (p < .05). […] In STZ-diabetic animals, the hypoglycaemic effect of pterostilbene (40 mg/kg of bw) was larger than 50% since 5 h and persisted throughout the experiment. Target compound 7c (40 mg/kg of bw) caused significant decreases in blood glucose levels compared with pterostilbene (40 mg/kg of bw).
# Type II DM was induced in mice by a single intraperitoneal injection of freshly prepared STZ (Sigma Aldrich, St. Louis, MO) dissolved in 0.1 M citrate buffer, pH 4.5, in a […] of 120 mg/kg of bw. After seven days of STZ administration, blood glucose levels of each mouse were determined. Mice with blood glucose levels higher than 11 mM were considered diabetic and were included in the study.
# STZ-induced diabetic mice and normal mice were placed in single cages with wire-net floors and deprived of food for 12 h before experimentation but allowed free access to tap water throughout. The compounds (at the doses of 10, 40, and 100 mg/kg of bw) were suspended in 0.05% Tween-80 in saline solution. Glibenclamide (10 mg/kg of bw) was suspended in the same vehicle. The target compounds were freshly prepared immediately before experimentation and administered by the intragastrical route at the doses of 10 ml/kg of bw. Control mice received only the vehicle (0.05% Tween-80 in saline solution) by the same route. Blood glucose levels were measured at 0, 1.5, 3, 5, 7, and 9 h after drugs administration.
# aldose reductase (ALR2) = target: T1, aldose reductase (ALR2) (Mus musculus, UniProt P45376); assay: In vitro ALR2 inhibitory activity (crude enzyme, NADPH decrease at 340 nm); assay type: biochemical, mice; conditions: read-out: IC50 value, ALR2 inhibitory activity
# T1 construct: After homogenisation and centrifugation, the crude ALR2 from mice was obtained; from tissue
# Procedure: The enzyme aldose reductase (ALR2) is a member of the aldo–keto reductase superfamily. The development and progression of chronic diabetic complications are confirmed to be quite related to the activation and/or over expression of ALR2[25]. Therefore, ALR2 inhibitors may play a critical role in preventing or treating these complications.
# After homogenisation and centrifugation, the crude ALR2 from mice was obtained. The inhibitory activity of the compounds on ALR2 was carried out using crude enzyme and different concentrations of the compounds (1–1000 µg/ml) in 200 mM PBS (pH 6.2) containing 0.10 mM NADPH. The reaction was initiated by addition of glyceraldehyde and the decrease in the optical density of NADPH at 340 nm was recorded for 3 min. All experiments were run in triplicate. IC50 of the compounds was calculated. The flavonoid quercetin was used as a reference in the ALR2 assay.
# α-Glucosidase = target: T2, α-Glucosidase (Saccharomyces cerevisiae, UniProt P53341); assay: biochemical; conditions: read-out: IC50 value, α-Glucosidase inhibitory activity
# T2 construct: purchased Sigma Aldrich G0660-750UN
# Procedure: α-Glucosidases, enzymes anchored in the brush border of the small intestine, are responsible for catalysing the hydrolysis of carbohydrates.
# α-Glucosidase (G0660-750UN, Sigma Aldrich, St. Louis, MO) and 4-nitrophenyl α-D-glucopyranoside (PNPG, Macklin) were dissolved in phosphate buffer (pH 6.8, 100 mM), and the test compounds were dissolved in DMSO solution. The experiment was divided into blank group, control group, sample blank group and sample group. The reagents were loaded in 96-well plates at the dose of the table (Table 3). The solution was bathed in 37 °C water for 10 min, after the end, enzyme solution was added. After reaction at 37 °C for 20 min, 70 µL Na2CO3 solution ([…]) was added to stop the reaction. All experiments were run in triplicate. […] Since PNPG can produce glucose and p-nitrophenol (PNP) under the action of α-glucosidase, PNP has the greatest absorption at 405 nm. The absorbance was determined by the microplate reader, and the inhibition rate of α-glucosidase and the IC50 value of each sample were calculated according to the formula. Inhibition rate %={[(AC−AB)−(AS−ASB)]/(AC−AB)}×100% where AC is the absorbance of control group; AB is the absorbance of blank group; AS is the absorbance of sample group; ASB is the absorbance of sample blank group.
# [2] = Oral toxicity to mice (Lorke's method); conditions: both sexes, mouse, in vivo, Kunming mice, 14 days observation
# Procedure: With reference to Lorke’s method, Kunming mice were used as targets to estimate oral toxicity of each compound to mice. We select compounds 3c, 3e, and 7c at concentrations of 10, 100, and 1000 mg/kg to test their oral toxicity in the first phase, and 1600, 2900, and 5000 mg/kg at the second phase. […] No death and no appetite-suppressant effect were detected in the tested mice in 14 days. […].
# Experiments were performed on Kunming mice (male and female half, body weight range, 25–30 g). Mice were housed in a climate and light controlled room with a 12 h light/dark cycle. Twelve hours before experiments, food was withheld, but animals had free access to drinking water. The compounds were suspended in vehicle (Tween-80, 0.2% in saline). The concentrations were adjusted to orally administrate 0.2 ml/10 g of bw (body weight). Mice were treated in two phases. In the first, intragastric doses of 10, 100 and 1000 mg/kg of bw of compounds were administered. On the second, the doses were adjusted to 1600, 2900 and 5000 mg/kg of bw of compounds. In both phases, mice were observed daily in a period of 14 days for mortality, toxic effects and/or changes in behavioural pattern. At the end of the experiments, the mice were sacrificed in a CO2 chamber.
# T2 sequence (P53341 whole entry): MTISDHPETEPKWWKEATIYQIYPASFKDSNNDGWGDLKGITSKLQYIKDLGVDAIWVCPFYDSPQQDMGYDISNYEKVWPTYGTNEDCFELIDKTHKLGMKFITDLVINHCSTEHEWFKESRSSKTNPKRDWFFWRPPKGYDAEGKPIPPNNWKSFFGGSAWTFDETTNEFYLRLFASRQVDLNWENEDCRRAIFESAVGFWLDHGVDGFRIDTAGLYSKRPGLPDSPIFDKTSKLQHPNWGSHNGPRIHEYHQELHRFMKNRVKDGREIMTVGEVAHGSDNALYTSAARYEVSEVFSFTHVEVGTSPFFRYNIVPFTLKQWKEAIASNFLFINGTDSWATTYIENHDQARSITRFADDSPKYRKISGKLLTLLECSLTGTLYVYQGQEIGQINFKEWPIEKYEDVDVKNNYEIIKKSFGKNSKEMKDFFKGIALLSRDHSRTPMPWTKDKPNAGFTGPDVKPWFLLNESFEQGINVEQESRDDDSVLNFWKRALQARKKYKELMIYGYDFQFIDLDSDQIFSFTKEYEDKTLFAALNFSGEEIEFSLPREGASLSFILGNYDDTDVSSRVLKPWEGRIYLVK
smiles,measurement,setting,value
COc1cc(/C=C/c2ccc(OCCCCCCO[N+](=O)[O-])cc2)cc(OC)c1 [3c],Blood glucose concentration,"[1]; dose 10 mg/kg per os, 0 h",22.6 ± 7.0 mM
same,Blood glucose concentration,"[1]; dose 10 mg/kg per os, 1.5 h",18.1 ± 7.3 mM
same,% Variation of glycaemia,"[1]; dose 10 mg/kg per os, 1.5 h vs 0 h",–20.13%
same,Blood glucose concentration,"[1]; dose 10 mg/kg per os, 3 h",17.0 ± 6.6 mM
same,% Variation of glycaemia,"[1]; dose 10 mg/kg per os, 3 h vs 0 h",–24.78%
same,Blood glucose concentration,"[1]; dose 10 mg/kg per os, 5 h",16.8 ± 6.1 mM
same,% Variation of glycaemia,"[1]; dose 10 mg/kg per os, 5 h vs 0 h",–25.66%
same,Blood glucose concentration,"[1]; dose 10 mg/kg per os, 7 h",15.7 ± 4.3 mM
same,% Variation of glycaemia,"[1]; dose 10 mg/kg per os, 7 h vs 0 h",–30.53%
same,Blood glucose concentration,"[1]; dose 10 mg/kg per os, 9 h",13.2 ± 3.5 mM
same,% Variation of glycaemia,"[1]; dose 10 mg/kg per os, 9 h vs 0 h",–41.59%
same,Blood glucose concentration,"[1]; dose 40 mg/kg per os, 0 h",21.7 ± 5.7 mM
same,Blood glucose concentration,"[1]; dose 40 mg/kg per os, 1.5 h",17.2 ± 5.6 mM
same,% Variation of glycaemia,"[1]; dose 40 mg/kg per os, 1.5 h vs 0 h",–20.74%
same,Blood glucose concentration,"[1]; dose 40 mg/kg per os, 3 h",16.3 ± 7.5 mM
same,% Variation of glycaemia,"[1]; dose 40 mg/kg per os, 3 h vs 0 h",–25.04%
same,Blood glucose concentration,"[1]; dose 40 mg/kg per os, 5 h",15.7 ± 6.4 mM
same,% Variation of glycaemia,"[1]; dose 40 mg/kg per os, 5 h vs 0 h",–27.57%
same,Blood glucose concentration,"[1]; dose 40 mg/kg per os, 7 h",14.3 ± 9.6 mM
same,% Variation of glycaemia,"[1]; dose 40 mg/kg per os, 7 h vs 0 h",–34.02%
same,Blood glucose concentration,"[1]; dose 40 mg/kg per os, 9 h",9.9 ± 4.6 mM
same,% Variation of glycaemia,"[1]; dose 40 mg/kg per os, 9 h vs 0 h",–54.30%
same,Blood glucose concentration,"[1]; dose 100 mg/kg per os, 0 h",18.6 ± 1.9 mM
same,Blood glucose concentration,"[1]; dose 100 mg/kg per os, 1.5 h",15.9 ± 3.6 mM
same,% Variation of glycaemia,"[1]; dose 100 mg/kg per os, 1.5 h vs 0 h",–14.34%
same,Blood glucose concentration,"[1]; dose 100 mg/kg per os, 3 h",15.2 ± 3.0 mM
same,% Variation of glycaemia,"[1]; dose 100 mg/kg per os, 3 h vs 0 h",–18.28%
same,Blood glucose concentration,"[1]; dose 100 mg/kg per os, 5 h",15.1 ± 3.7 mM
same,% Variation of glycaemia,"[1]; dose 100 mg/kg per os, 5 h vs 0 h",–19.00%
same,Blood glucose concentration,"[1]; dose 100 mg/kg per os, 7 h",13.4 ± 4.7 mM
same,% Variation of glycaemia,"[1]; dose 100 mg/kg per os, 7 h vs 0 h",–28.23%
same,Blood glucose concentration,"[1]; dose 100 mg/kg per os, 9 h",11.1 ± 3.0 mM
same,% Variation of glycaemia,"[1]; dose 100 mg/kg per os, 9 h vs 0 h",–40.32%
same,IC50,aldose reductase (ALR2),299 ± 22.6 µM
same,IC50,α-Glucosidase,83.1 ± 16.2 µM
same,LD50 at 14 days,[2],> 5000 mg/kg
